Measured values from ChEMBL document CHEMBL3112566, “Thiazolopyridone ureas as DNA gyrase B inhibitors: optimization of antitubercular activity and efficacy” (Bioorg Med Chem Lett, 2014).

Assay: AUC in mouse at 300 mg/kg, po
Assay type: ADME, organism-based
Parameters: dose 300 mg/kg, route oral
Details: plasma

- AUC: 981 µM·h
Structure (SMILES): CCNC(=O)Nc1nc2cc(-c3cccnc3)c(=O)n(C(C)C)c2s1
